According to patent US20150282489A1, “SYNERGISTIC FUNGICIDAL COMPOSITIONS CONTAINING LACTOPEROXIDASE SYSTEM” (DSM IP ASSETS B.V., priority 2012, published 2015):

Experiments:
[1] = system: powdery mildew spores (spores of Oidium neolycopersici); experiment: Treatment of tomato plants against mildew disease (Example 1, natamycin and lactoperoxidase system mixed before application); format: in vivo, Oidium neolycopersici on tomato plants
Experimental: (§1) Tomato plants were grown in a greenhouse using well known methods. Twenty-five days after planting, the tomato plants were inoculated with powdery mildew spores (spores of Oidium neolycopersici). Fourteen days after the tomato plants were inoculated with the spores, the plants were treated with: a) a composition comprising natamycin (1500 ppm), b) a composition comprising a lactoperoxidase system, or c) a composition comprising natamycin (1500 ppm) and a lactoperoxidase system (natamycin and the lactoperoxidase system were mixed before application to the tomato plants). As a control, untreated tomato plants were used. All compositions comprising natamycin comprised glycerol (2.5 ml/l ) and polyether trisiloxane (BREAK-TRU®; 0.25 ml/l ). The lactoperoxidase system comprised lactoperoxidase, potassium iodide, potassium thiocyanate and a hydrogen peroxide source. When the lactoperoxidase system was used alone, ADDIT, a rapeseed-oil based adjuvant, was added to the lactoperoxidase system. The tomato plants were sprayed with 2000 lof the respective composition per ha, corresponding to a rate of about 130 ml of the respective composition per plant. The trial was performed on four plots with each plot containing 5 tomato plants. Powdery mildew growth was assessed in a twofold manner: (i) the number of visible colonies on 2 marked leafs of each tomato plant were counted; and (ii) the antifungal activity (in %) of the individual and combined active ingredients was determined by calculating the reduction in mould growth observed on the marked leafs of the tomato plants that were treated with the antifungal composition in comparison to the mould growth on the marked leafs of the tomato plants that were treated with the control composition. The expected antifungal activity (E in %) of the combined antifungal composition comprising both active ingredients was calculated according to the Colby equation (Colby, 1967): E=X+Y−[(X·Y)/100] wherein X and Y are the observed antifungal activities (in %) of the individual active ingredients X and Y, respectively. If the observed antifungal activity (O in %) of the combination exceeds the expected antifungal activity (E in %) of the combination and the synergy factor O/E is thus >1.0, the combined application of the active ingredients leads to a synergistic antifungal effect.

[2] = system: powdery mildew spores (spores of Oidium neolycopersici); experiment: Treatment of tomato plants against mildew disease (Example 2, lactoperoxidase system applied first, natamycin after one hour); format: in vivo, Oidium neolycopersici on tomato plants
Experimental: as §1, with “with:” for “with: a) a composition comprising natamycin (1500 ppm), b) a composition comprising a lactoperoxidase system, or c) a composition comprising natamycin (1500 ppm) and a lactoperoxidase system (natamycin and the lactoperoxidase system were mixed before application to the tomato plants). As a control, untreated tomato plants were used.”, “effect. The experiment was done as described in Example 1, with the proviso that first of all the lactoperoxidase system was applied to the tomato plants and after one hour (when the tomato plants were dry again) the natamycin composition was applied.” for “effect.”

## C[C@@H]1C/C=C/C=C/C=C/C=C/[C@H](O[C@@H]2O[C@H](C)[C@@H](O)[C@H](N)[C@@H]2O)C[C@@H]2O[C@](O)(C[C@@H](O)C[C@H]3O[C@@H]3/C=C/C(=O)O1)C[C@H](O)[C@H]2C(=O)O [Natamcyin, natamycin]
[1]; 9 days after application of the respective compositions
  Change in visible fungal colonies at 9 days after application: increase in visible fungal colonies
[1]; 9 days after application, natamycin 1500 ppm, spray 2000 l/ha
  Average number of fungal colonies per tomato leaf, Day 9: 11.9
[1]; one day before application of the composition (baseline), natamycin 1500 ppm, spray 2000 l/ha
  Average number of fungal colonies per tomato leaf, Day −1: 6.1
[1]; positive = increase, negative = decrease from day −1 to day 9, natamycin 1500 ppm
  Average number of fungal colonies per tomato leaf, Day 9 corrected for Day −1: 5.8
[2]; 9 days after application, combination applied sequentially
  Change in visible fungal colonies at 9 days after application: increase in visible fungal colonies
[2]; 9 days after application, combination: lactoperoxidase system first, natamycin after one hour
  Average number of fungal colonies per tomato leaf, Day 9: 11.9
[2]; one day before application (baseline), combination applied sequentially
  Average number of fungal colonies per tomato leaf, Day −1: 6.1
[2]; positive = increase, negative = decrease from day −1 to day 9, combination applied sequentially
  Average number of fungal colonies per tomato leaf, Day 9 corrected for Day −1: 5.8
